In US20100184722A1, “INCLUSION COMPLEXES OF ALPHA-CYCLODEXTRIN AND SILDENAFIL SALT” (Shimoda Biotech (Pty) Ltd, priority 2008, published 2010):
Structures can show the parent of a compound that is named as a salt.

Tests used:
Assay type in all cases: physicochemical
[1] = Solubility of sildenafil base in ddH2O with cyclodextrins (24 h shaking, HPLC); conditions: ACD 0-100 mg/ml, GCD 0-200 mg/ml, HPBCD 0-200 mg/ml, BCD 0-15 mg/ml
Method: These samples were shaken for 24 hours at 200 rpm. Excess sildenafil citrate was present in each of the vials for the duration of the solubility study. Following the shaking, the vial contents were filtered through 0.45 μm filters to remove any excess solute. The remaining solution was assayed by HPLC for sildenafil base content. […] This is in agreement with the findings of Omani, et al. (2006).

[2] = pH dependence of sildenafil citrate solubility in phosphate-citrate buffer with or without cyclodextrin; conditions: phosphate-citrate buffer (0.1M), pH 3.0-8.0
Method: Phosphate-citrate buffer (0.1M) solutions are prepared with pH's of 3.0; 4.0, 5.0; 6.0; 7.0 and 8.0 in ddH2O (de-oxygenated water by purging with nitrogen gas). […] The maximal aqueous solubility for sildenafil citrate appears to occur at pH 5.

[3] = Solubility of sildenafil citrate in ddH2O with cyclodextrins (24 h shaking, HPLC); conditions: ACD 0-100 mg/ml, GCD 0-200 mg/ml, HPBCD 0-200 mg/ml, BCD 0-15 mg/ml
Method: Solutions were prepared by adding 50 mg of sildenafil citrate to ddH2O samples with varying quantities of the different cyclodextrins. FIG. 1B depicts solubility data of sildenafil citrate complexed with beta-cyclodextrin (BCD) at 0-15 mg/ml These samples were shaken for 24 hours at 200 rpm. Excess sildenafil citrate was present in each of the vials for the duration of the solubility study. Following the shaking, the vial contents were filtered through 0.45 μm filters to remove any excess solute. The remaining solution was assayed by HPLC for sildenafil citrate content.

Row | SMILES | aqueous solubility of sildenafil base in the presence of cyclodextrins vs no cyclodextrin [1] | pH of maximal aqueous solubility [2] | aqueous solubility of sildenafil citrate in the presence of cyclodextrins vs no cyclodextrin [3]
1 | CCCc1nn(C)c2c(=O)[nH]c(-c3cc(S(=O)(=O)N4CCN(C)CC4)ccc3OCC)nc12 [sildenafil base, 5-[2-ethoxy-5-(4-methylpiperazin-1-yl)sulfonylphenyl]-1-methyl-3-propyl-4H-pyrazolo[5,4-e]pyrimidin-7-one] | improved solubility | – | –
2 | CCCc1nn(C)c2c(=O)[nH]c(-c3cc(S(=O)(=O)N4CCN(C)CC4)ccc3OCC)nc12 [sildenafil citrate, 1-[[3-(6,7-dihydro-1-methyl-7-oxo-3-propyl-1H15-pyrazolo[4,3-d]pyrimidin-5-yl)-4-ethoxyphenyl]sulfonyl]-4-methylpiperazine citrate] | – | 5 | improved solubility
